Entries after “also recorded” stand apart in the source; their conditions may differ. Like-named read-outs stand apart in the source and are kept apart here.
What was measured:
[1] = cited from earlier work
[2] = 4-day continuous infusion with cyclophosphamide and carboplatin; cited from earlier work
clinical = format: in vivo, human
[3] = with paclitaxel and carboplatin
[4] = median, dose level 7, daily dose 21.3 mg/m^2 for 3 days, day 8, phase I patients
[5] = Expanded MTD cohort, TIME + HCT
[6] = TIME regimen with autologous HCT
[7] = dose level 1, topotecan 10 mg/m^2, TIME + HCT
[8] = dose level 2, topotecan 15 mg/m^2, TIME + HCT
[9] = dose level 3, topotecan 20 mg/m^2, TIME + HCT
[10] = dose level 4, topotecan 27 mg/m^2, TIME + HCT
[11] = dose level 5, topotecan 36 mg/m^2, TIME + HCT
[12] = dose level 6, topotecan 48 mg/m^2, TIME + HCT
[13] = dose level 7, topotecan 64 mg/m^2, TIME + HCT
[14] = dose level 8, topotecan 85 mg/m^2, TIME + HCT

SMILES: CC[C@@]1(O)C(=O)OCc2c1cc1n(c2=O)Cc2cc3c(CN(C)C)c(O)ccc3nc2-1 [topotecan]
- dose-limiting toxicity ([1]; seen at 6 mg/m^2/d, with cyclophosphamide and carboplatin): severe stomatitis requiring parenteral nutrition and narcotic administration
- MTD ([1]; single agent, 72-hour continuous infusion, largest dose 11 mg/m^2): not reached
- dose-limiting toxicity ([1]; single-agent topotecan with hematopoietic cell support): diarrhea
- dose-limiting toxicities [1, 3]: hemorrhagic stomatitis and prolonged hematopoietic recovery
- topotecan dose at which 4 cycles could be given [1, 3]: 10 mg/m^2
- median topotecan clearance [2]: 184 mL/min/m^2
- AUC, Lactone (clinical; human, in vivo, 3.3 mg/m2): 0.26 µM·h
- AUC, Total (clinical; human, in vivo, 3.3 mg/m2): 0.56 µM·h
- Cl, Lactone (clinical; human, in vivo, 3.3 mg/m2): 27.95 L/h/m^2
- Cl, Total (clinical; human, in vivo, 3.3 mg/m2): 12.97 L/h/m^2
- Cmax (clinical; human, in vivo, 3.3 mg/m2): 180 nM
- Cmax, Total (clinical; human, in vivo, 3.3 mg/m2): 180 nM
- T1/2, Lactone (clinical; human, in vivo, 3.3 mg/m2): 2.6 h
- T1/2, Total (clinical; human, in vivo, 3.3 mg/m2): 2.7 h
- Vdss, Lactone (clinical; human, in vivo, 3.3 mg/m2): 56.6 L/m^2
- Vdss, Total (clinical; human, in vivo, 3.3 mg/m2): 49.2 L/m^2
- AUC (clinical; human, in vivo, 5 mg/m2): 0.27 µM·h
- Cl, Lactone (clinical; human, in vivo, 5 mg/m2): 41.19 L/h/m^2
- Cl, Total (clinical; human, in vivo, 5 mg/m2): 15.44 L/h/m^2
- Cmax (clinical; human, in vivo, 5 mg/m2): 200 nM
- T1/2, Total (clinical; human, in vivo, 5 mg/m2): 3.0 h
- half-life (clinical; human, in vivo, 5 mg/m2): 2.7 h
- AUC (clinical; human, in vivo, 6.8 mg/m2): 0.38 µM·h
- AUC, Total (clinical; human, in vivo, 6.8 mg/m2): 0.86 µM·h
- Cl, Lactone (clinical; human, in vivo, 6.8 mg/m2): 39.59 L/h/m^2
- Cl, Total (clinical; human, in vivo, 6.8 mg/m2): 17.14 L/h/m^2
- Cmax (clinical; human, in vivo, 6.8 mg/m2): 230 nM
- Cmax, Total (clinical; human, in vivo, 6.8 mg/m2): 330 nM
- T1/2, Total (clinical; human, in vivo, 6.8 mg/m2): 2.6 h
- Vdss, Lactone (clinical; human, in vivo, 6.8 mg/m2): 113 L/m^2
- Vdss, Total (clinical; human, in vivo, 6.8 mg/m2): 57.5 L/m^2
- half-life (clinical; human, in vivo, 6.8 mg/m2): 3.4 h
- AUC, Lactone (clinical; human, in vivo, 8.9 mg/m2): 0.70 µM·h
- AUC, Total (clinical; human, in vivo, 8.9 mg/m2): 1.63 µM·h
- Cl, Lactone (clinical; human, in vivo, 8.9 mg/m2): 28.1 L/h/m^2
- Cl, Total (clinical; human, in vivo, 8.9 mg/m2): 12.05 L/h/m^2
- Cmax (clinical; human, in vivo, 8.9 mg/m2): 480 nM
- Cmax, Total (clinical; human, in vivo, 8.9 mg/m2): 520 nM
- T1/2, Lactone (clinical; human, in vivo, 8.9 mg/m2): 3.1 h
- Vdss, Lactone (clinical; human, in vivo, 8.9 mg/m2): 91.6 L/m^2
- Vdss, Total (clinical; human, in vivo, 8.9 mg/m2): 53.7 L/m^2
- AUC, Lactone (clinical; human, in vivo, 12 mg/m2): 0.88 µM·h
- AUC, Total (clinical; human, in vivo, 12 mg/m2): 1.86 µM·h
- Cl, Lactone (clinical; human, in vivo, 12 mg/m2): 30.11 L/h/m^2
- Cl, Total (clinical; human, in vivo, 12 mg/m2): 16.43 L/h/m^2
- Cmax (clinical; human, in vivo, 12 mg/m2): 610 nM
- Cmax, Total (clinical; human, in vivo, 12 mg/m2): 650 nM
- T1/2, Lactone (clinical; human, in vivo, 12 mg/m2): 3.2 h
- T1/2, Total (clinical; human, in vivo, 12 mg/m2): 2.9 h
- Vdss, Lactone (clinical; human, in vivo, 12 mg/m2): 94.4 L/m^2
- Vdss, Total (clinical; human, in vivo, 12 mg/m2): 53.3 L/m^2
- AUC, Lactone (clinical; human, in vivo, 15.7 mg/m2): 1.48 µM·h
- AUC, Total (clinical; human, in vivo, 15.7 mg/m2): 2.77 µM·h
- Cl, Lactone (clinical; human, in vivo, 15.7 mg/m2): 23.53 L/h/m^2
- Cl, Total (clinical; human, in vivo, 15.7 mg/m2): 12.62 L/h/m^2
- Cmax (clinical; human, in vivo, 15.7 mg/m2): 800 nM
- Cmax, Total (clinical; human, in vivo, 15.7 mg/m2): 870 nM
- T1/2, Lactone (clinical; human, in vivo, 15.7 mg/m2): 3.3 h
- T1/2, Total (clinical; human, in vivo, 15.7 mg/m2): 3.1 h
- Vdss, Lactone (clinical; human, in vivo, 15.7 mg/m2): 76.6 L/m^2
- Vdss, Total (clinical; human, in vivo, 15.7 mg/m2): 48.1 L/m^2
- T1/2, Lactone (clinical; human, in vivo, 21.3 mg/m2): 2.7 h
- T1/2, Total (clinical; human, in vivo, 21.3 mg/m2): 2.6 h
- AUC, Lactone (clinical; human, in vivo, 28.4 mg/m2): 2.40 µM·h
- AUC, Total (clinical; human, in vivo, 28.4 mg/m2): 5.73 µM·h
- Cl, Lactone (clinical; human, in vivo, 28.4 mg/m2): 25.77 L/h/m^2
- Cl, Total (clinical; human, in vivo, 28.4 mg/m2): 10.78 L/h/m^2
- Cmax (clinical; human, in vivo, 28.4 mg/m2): 1670 nM
- Cmax, Total (clinical; human, in vivo, 28.4 mg/m2): 2120 nM
- T1/2, Total (clinical; human, in vivo, 28.4 mg/m2): 2.4 h
- Vdss, Lactone (clinical; human, in vivo, 28.4 mg/m2): 81.5 L/m^2
- Vdss, Total (clinical; human, in vivo, 28.4 mg/m2): 41.1 L/m^2
- Cl, Lactone (clinical; [4]): 29.10 L/h/m^2
- Cl, Total (clinical; [4]): 13.43 L/h/m^2
- Vdss, Lactone (clinical; [4]): 95.8 L/m^2
- Vdss, Total (clinical; [4]): 63.9 L/m^2
- MTD of topotecan (daily dose) (3 days, in combination with ifosfamide, mesna, etoposide, followed by autologous HCT): 21.3 mg/m^2/d
- Nonrelapse deaths, cause [5]: Arrhythmia (1) and bacterial sepsis (1)
- Nonrelapse deaths, number of patients [5]: 2 (13%)
- dose-limiting toxicity [6]: Mucositis; also recorded: gastrointestinal toxicity
- recommended phase II dose [6]: 64 mg/m^2
- Cortical function, number of patients with grade 3 or 4 [7]: 0
- Enteritis, number of patients with grade 3 or 4 [7]: 0
- Hematuria, number of patients with grade 3 or 4 [7]: 0
- Mucositis (grade 4), number of patients [7]: 1 (25%)
- Nonrelapse deaths, number of patients [7]: 0
- Number of days with grade 4 mucositis, median (range) [7]: 0 (0-1) days
- Peripheral nerve function, number of patients with grade 3 or 4 [7]: 0
- Pulmonary clinical status, number of patients with grade 3 or 4 [7]: 1 (25%)
- Reduction in ejection fraction, number of patients with grade 3 or 4 [7]: 0
- Cortical function, number of patients with grade 3 or 4 [8]: 1 (17%)
- Enteritis, number of patients with grade 3 or 4 [8]: 1 (17%)
- Hematuria, number of patients with grade 3 or 4 [8]: 1 (17%)
- Mucositis (grade 4), number of patients [8]: 2 (33%)
- Nonrelapse deaths, number of patients [8]: 0
- Number of days with grade 4 mucositis, median (range) [8]: 0 (0-10) days
- Peripheral nerve function, number of patients with grade 3 or 4 [8]: 1 (17%)
- Pulmonary clinical status, number of patients with grade 3 or 4 [8]: 1 (17%)
- Reduction in ejection fraction, number of patients with grade 3 or 4 [8]: 0
- Cortical function, number of patients with grade 3 or 4 [9]: 0
- Enteritis, number of patients with grade 3 or 4 [9]: 3 (75%)
- Hematuria, number of patients with grade 3 or 4 [9]: 1 (25%)
- Mucositis (grade 4), number of patients [9]: 2 (50%)
- Nonrelapse deaths, number of patients [9]: 0
- Number of days with grade 4 mucositis, median (range) [9]: 2.5 (0-6) days
- Peripheral nerve function, number of patients with grade 3 or 4 [9]: 0
- Pulmonary clinical status, number of patients with grade 3 or 4 [9]: 0
- Reduction in ejection fraction, number of patients with grade 3 or 4 [9]: 0
- Cortical function, number of patients with grade 3 or 4 [10]: 1 (20%)
- Enteritis, number of patients with grade 3 or 4 [10]: 3 (60%)
- Hematuria, number of patients with grade 3 or 4 [10]: 0
- Mucositis (grade 4), number of patients [10]: 4 (80%)
- Nonrelapse deaths, number of patients [10]: 0
- Number of days with grade 4 mucositis, median (range) [10]: 2 (0-7) days
- Peripheral nerve function, number of patients with grade 3 or 4 [10]: 0
- Pulmonary clinical status, number of patients with grade 3 or 4 [10]: 1 (20%)
- Reduction in ejection fraction, number of patients with grade 3 or 4 [10]: 1 (20%)
- Cortical function, number of patients with grade 3 or 4 [11]: 1 (11 %)
- Enteritis, number of patients with grade 3 or 4 [11]: 4 (44%)
- Hematuria, number of patients with grade 3 or 4 [11]: 0
- Mucositis (grade 4), number of patients [11]: 5 (56%)
- Nonrelapse deaths, number of patients [11]: 0
- Number of days with grade 4 mucositis, median (range) [11]: 1 (0-20) days
- Peripheral nerve function, number of patients with grade 3 or 4 [11]: 0
- Pulmonary clinical status, number of patients with grade 3 or 4 [11]: 0
- Reduction in ejection fraction, number of patients with grade 3 or 4 [11]: 0
- Cortical function, number of patients with grade 3 or 4 [12]: 0
- Enteritis, number of patients with grade 3 or 4 [12]: 2 (40%)
- Hematuria, number of patients with grade 3 or 4 [12]: 0
- Mucositis (grade 4), number of patients [12]: 5 (100%)
- Nonrelapse deaths, number of patients [12]: 0
- Number of days with grade 4 mucositis, median (range) [12]: 5 (1-9) days
- Peripheral nerve function, number of patients with grade 3 or 4 [12]: 0
- Pulmonary clinical status, number of patients with grade 3 or 4 [12]: 0
- Reduction in ejection fraction, number of patients with grade 3 or 4 [12]: 0
- Cortical function, number of patients with grade 3 or 4 [13]: 0
- Enteritis, number of patients with grade 3 or 4 [13]: 4 (57%)
- Hematuria, number of patients with grade 3 or 4 [13]: 1 (14%)
- Mucositis (grade 4), number of patients [13]: 7 (100%)
- Nonrelapse deaths, cause [13]: Fungal infection
- Nonrelapse deaths, number of patients [13]: 1 (14%)
- Number of days with grade 4 mucositis, median (range) [13]: 6 (4-11) days
- Peripheral nerve function, number of patients with grade 3 or 4 [13]: 1 (14%)
- Pulmonary clinical status, number of patients with grade 3 or 4 [13]: 0
- Reduction in ejection fraction, number of patients with grade 3 or 4 [13]: 0
- Cortical function, number of patients with grade 3 or 4 [14]: 0
- Enteritis, number of patients with grade 3 or 4 [14]: 3 (60%)
- Hematuria, number of patients with grade 3 or 4 [14]: 1 (20%)
- Mucositis (grade 4), number of patients [14]: 4 (80%)
- Nonrelapse deaths, cause [14]: Septic shock
- Nonrelapse deaths, number of patients [14]: 1 (20%)
- Number of days with grade 4 mucositis, median (range) [14]: 8 (0-12) days
- Peripheral nerve function, number of patients with grade 3 or 4 [14]: 0
- Pulmonary clinical status, number of patients with grade 3 or 4 [14]: 0
- Reduction in ejection fraction, number of patients with grade 3 or 4 [14]: 1 (20%)
